The values that follow come from patent publication US20240252488A1 (KOREA RESEARCH INSTITUTE OF CHEMICAL TECHNOLOGY, priority 2020, published 2024).

Structures are written as SMILES. Structures can show the parent of a compound that is named as a salt.

The first experiment deals with FADD−/− Jurkat cells. Nature of the experiment: Necroptosis inhibition assay, TNF-α-induced necroptosis (CellTiter-Glo 2.0). Type of experiment: cell-based, human. To be noted: compound 1 μM; TNF-α 15 ng/mL. On the procedure: Necroptosis Inhibition Assay
Necroptosis inhibition was evaluated by the following method.
80 μL of FADD gene-defective human T lymphocyte cells (FADD−/− Jurkat cells) were equally distributed into each well at 5.0×10^5 cells/mL in a white 96-well plate with a transparent bottom. 20 μL of the medium containing test compound was treated in each well so that the final concentration of the compound was 0.1, 1, and 10 μM, and reacted at room temperature for 30 minutes. After the 30-minute reaction was over, TNF (tumor necrosis factor)-α was treated in the corresponding well so that the final concentration of TNF-α was 15 ng/mL in order to induce necroptosis. It was cultured in a 5% CO2, 37° C. incubator for 20 to 24 hours.
After incubation, the 96-well plate was left at room temperature for 30 minutes. After 30 minutes, Promega's CellTiter-Glo 2.0 reagent was diluted 1:3 with PBS and 100 μL of the diluted solution was added to each well to confirm cell viability by measuring the amount of ATP. After the treatment, the plate was shielded from light and incubated at room temperature for 2 minutes with orbital shaking, and then left at room temperature for 10 minutes without shaking. After measuring the luminescence at 0.5 seconds per well using a plate scanner, the cytotoxicity and necroptosis inhibition rate for the compound were calculated using the measured values.
As to `Nc1nccnc1C(=O)N[C@@H](C(=O)Nc1ccc(F)cc1)c1ccccc1` [TDH-106, (R)-3-amino-N-(2-((4-fluorophenyl)amino)-2-oxo-1-phenylethyl)pyrazine-2-carboxamide], the “Necroptosis inhibition assay (Rescue %) 1 μM” value came out at 13.76%.

Still in this experiment, the particulars now being: compound 10 μM; TNF-α 15 ng/mL.
In the case of `Nc1nccnc1C(=O)N[C@@H](C(=O)Nc1ccc(F)cc1)c1ccccc1` [TDH-106, (R)-3-amino-N-(2-((4-fluorophenyl)amino)-2-oxo-1-phenylethyl)pyrazine-2-carboxamide], the “Necroptosis inhibition assay (Rescue %) 10 μM” value is listed as 34.33%.

The target of another experiment is T1, MLKL (Homo sapiens, UniProt Q8NB16).
T1 sequence (Q8NB16 1-471): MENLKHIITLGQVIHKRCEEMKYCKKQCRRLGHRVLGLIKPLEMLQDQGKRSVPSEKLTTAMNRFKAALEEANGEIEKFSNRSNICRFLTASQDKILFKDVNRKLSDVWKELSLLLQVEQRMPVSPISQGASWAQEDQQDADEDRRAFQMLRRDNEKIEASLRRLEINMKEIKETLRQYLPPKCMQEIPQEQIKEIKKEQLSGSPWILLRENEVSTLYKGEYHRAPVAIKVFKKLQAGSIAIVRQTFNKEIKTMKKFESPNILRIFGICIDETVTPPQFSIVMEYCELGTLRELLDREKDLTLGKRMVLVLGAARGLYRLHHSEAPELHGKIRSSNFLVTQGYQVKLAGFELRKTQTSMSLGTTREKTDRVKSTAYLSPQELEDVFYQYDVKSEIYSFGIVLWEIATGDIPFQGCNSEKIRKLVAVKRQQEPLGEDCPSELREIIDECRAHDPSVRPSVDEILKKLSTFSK
Nature of the experiment: Measurement of binding affinity with MLKL receptor (competitive binding assay, Kd). More on the design: made in house; host or cells: HEK 293 cell line (T7 phage in E. coli BL21-derived host is also described).
Conditions: not given
The method, then: Measurement of Binding Affinity with MLKL Receptor (Competitive Binding Assay)
The binding affinity was evaluated by measuring the Kd value in the following method.
To prepare kinase-tagged T7 phage strains in an E. coli host derived from the BL21 strain, E. coli were grown to log-phase and infected with T7 phage and incubated with shaking at 32° C. until lysis. The lysates were centrifuged and filtered to remove cell debris. For kinase production, it was expressed in human embryonic kidney cell line (HEK 293 cell line), and subsequently tagged with DNA for qPCR detection.
The liganded beads were blocked with excess biotin and washed with blocking buffer (SeaBlock (Pierce), 1% BSA, 0.05% Tween 20, 1 mM DTT) to remove unbound ligand and to reduce non-specific binding. […] Test compounds were prepared as 111× stocks in 100% DMSO.
The compounds were then diluted directly into the assays such that the final concentration of DMSO was 0.9%. All reactions performed in polypropylene 384-well plate. Each was a final volume of 0.02 ml. […] The kinase concentration in the eluates was measured by qPCR.
For the compound `Nc1ncc(C2=CCN(C(=O)CCCCCNC(=O)C3CCN(c4cccc5c4C(=O)N(C4CCC(=O)NC4=O)C5=O)CC3)CC2)cc1C(=O)O[C@@H](C(=O)Nc1ccc(F)cc1)c1ccccc1` (stereo partly drawn) [TDH-080, (R)-2-((4-fluorophenyl)amino)-2-oxo-1-phenylethyl 6-amino-1′-(6-(1-(2-(2,6-dioxopiperidin-3-yl)-1,3-dioxoisoindolin-4-yl)piperidine-4-carboxamido)hexanoyl)-1′,2′,3′,6′-tetrahydro-[3,4′-bipyridine]-5-carboxylate], binding was put at a Kd of 120 nM.

With `Nc1ncc(C2=CCN(C(=O)COCCOCCNC(=O)C3CN(c4ccc5c(c4)C(=O)N(C4CCC(=O)NC4=O)C5=O)C3)CC2)cc1C(=O)O[C@@H](C(=O)Nc1ccc(F)cc1)c1ccccc1` (stereo partly drawn) [TDH-087, (R)-2-((4-fluorophenyl)amino)-2-oxo-1-phenylethyl 6-amino-1′-(2-(2-(2-(1-(2-(2,6-dioxopiperidin-3-yl)-1,3-dioxoisoindolin-5-yl)azetidine-3-carboxamido)ethoxy)ethoxy)acetyl)-1′,2′,3′,6′-tetrahydro-[3,4′-bipyridine]-5-carboxylate], the dissociation constant Kd (as a rule, the constant that tells how readily two partners part at equilibrium) was 38 nM.

Take `Nc1ncc(C2=CCN(C(=O)COCCOCCNC(=O)C3CCN(c4ccc5c(c4)C(=O)N(C4CCC(=O)NC4=O)C5=O)CC3)CC2)cc1C(=O)O[C@@H](C(=O)Nc1ccc(F)cc1)c1ccccc1` (stereo partly drawn) [TDH-089, (R)-2-((4-fluorophenyl)amino)-2-oxo-1-phenylethyl 6-amino-1′-(2-(2-(2-(1-(2-(2,6-dioxopiperidin-3-yl)-1,3-dioxoisoindolin-5-yl)piperidine-4-carboxamido)ethoxy)ethoxy)acetyl)-1′,2′,3′,6′-tetrahydro-[3,4′-bipyridine]-5-carboxylate]: the Kd came out at 56 nM. On the same count and under the same terms, the figure for `Nc1ncc(C2=CCN(C(=O)CCCCCNC(=O)C3CN(c4cccc5c4C(=O)N(C4CCC(=O)NC4=O)C5=O)C3)CC2)cc1C(=O)O[C@@H](C(=O)Nc1ccc(F)cc1)c1ccccc1` (stereo partly drawn) [TDH-078, (R)-2-((4-fluorophenyl)amino)-2-oxo-1-phenylethyl 6-amino-1′-(6-(1-(2-(2,6-dioxopiperidin-3-yl)-1,3-dioxoisoindolin-4-yl)azetidine-3-carboxamido)hexanoyl)-1′,2′,3′,6′-tetrahydro-[3,4′-bipyridine]-5-carboxylate] is 90 nM. On the same count and under the same terms, in the case of `CC(C)(C)OC(=O)N1CC[C@H](n2cc(-c3cnc(N)c(C(=O)OC(C(=O)Nc4ccc(F)cc4)c4ccccc4)n3)cn2)C1` (stereo partly drawn) [TDH-227, 2-((4-fluorophenyl)amino)-2-oxo-1-phenylethyl 3-amino-6-(1-((S)-1-(tert-butoxycarbonyl)pyrrolidin-3-yl)-1H-pyrazol-4-yl)pyrazine-2-carboxylate] it was 12 nM; in that of `Nc1ncc(-c2cnn(C3CCN(CCCCCCNc4cccc5c4C(=O)N(C4CCC(=O)NC4=O)C5=O)CC3)c2)nc1C(=O)O[C@@H](C(=O)Nc1ccc(F)cc1)c1ccccc1` (stereo partly drawn) [TDH-119, (R)-2-((4-fluorophenyl)amino)-2-oxo-1-phenylethyl 3-amino-6-(1-(1-(6-((2-(2,6-dioxopiperidin-3-yl)-1,3-dioxoisoindolin-4-yl)amino)hexyl)piperidin-4-yl)-1H-pyrazol-4-yl)pyrazine-2-carboxylate], 7.9 nM.

Turning to `CC(=O)N1CCC(n2cc(-c3cnc(N)c(C(=O)O[C@@H](C(=O)Nc4ccc(F)cc4)c4ccccc4)n3)cn2)CC1` [TDH-097, (R)-2-((4-fluorophenyl)amino)-2-oxo-1-phenylethyl 6-(1-(1-acetylpiperidin-4-yl)-1H-pyrazol-4-yl)-3-aminopyrazine-2-carboxylate], the affinity, expressed as Kd, was 0.73 nM. `Nc1ncc(-c2cnn(C3CCNCC3)c2)nc1C(=O)O[C@@H](C(=O)Nc1ccc(F)cc1)c1cccc(Cl)c1` [hydrochloride] returned a dissociation constant (Kd) of 2 nM.

The compound `CN(C(=O)c1nc(-c2cnn(C3CCNCC3)c2)cnc1N)[C@@H](C(=O)Nc1ccc(F)cc1)c1ccccc1` [TDH-490, (R)-3-amino-N-(2-((4-fluorophenyl)amino)-2-oxo-1-phenylethyl)-N-methyl-6-(1-(piperidin-4-yl)-1H-pyrazol-4-yl)pyrazine-2-carboxamide hydrochloride] had a dissociation constant (Kd) of 400 nM. Still for that read-out and setting: the figure for `CC(=O)N1CC[C@@H](n2cc(-c3cnc(N)c(C(=O)OC(C(=O)Nc4ccc(F)cc4)c4ccccc4)n3)cn2)C1` (stereo partly drawn) [TDH-229, 2-((4-fluorophenyl)amino)-2-oxo-1-phenylethyl 6-(1-((R)-1-acetylpyrrolidin-3-yl)-1H-pyrazol-4-yl)-3-aminopyrazine-2-carboxylate] is 1.1 nM. `Nc1ncc(Br)nc1C(=O)N[C@H](C(=O)Nc1ccc(F)cc1)c1ccccc1` [TDH-067, (S)-3-amino-6-bromo-N-(2-((4-fluorophenyl)amino)-2-oxo-1-phenylethyl)pyrazine-2-carboxamide]: the Kd was greater than 10000 nM.

Compound `Nc1ncc(-c2cnn(C3CCN(CCCCCCCCCCNc4cccc5c4C(=O)N(C4CCC(=O)NC4=O)C5=O)CC3)c2)nc1C(=O)O[C@@H](C(=O)Nc1ccc(F)cc1)c1ccccc1` (stereo partly drawn) [TDH-095, (R)-2-((4-fluorophenyl)amino)-2-oxo-1-phenylethyl 3-amino-6-(1-(1-(10-((2-(2,6-dioxopiperidin-3-yl)-1,3-dioxoisoindolin-4-yl)amino)decyl)piperidin-4-yl)-1H-pyrazol-4-yl)pyrazine-2-carboxylate] gave a Kd of 26 nM. Still for that read-out and setting: the figure for `Nc1ncc(-c2cnn(C3CCNCC3)c2)nc1C(=O)O[C@@H](C(=O)Nc1ccncc1)c1ccccc1` [TDH-479, (R)-2-oxo-1-phenyl-2-(pyridin-4-ylamino)ethyl 3-amino-6-(1-(piperidin-4-yl)-1H-pyrazol-4-yl)pyrazine-2-carboxylate--2,2,2-trifluoroacetaldehyde] is 5.6 nM; for `Nc1ncc(C2=CCN(C(=O)COCCOCCNc3ccc4c(c3)C(=O)N(C3CCC(=O)NC3=O)C4=O)CC2)cc1C(=O)O[C@@H](C(=O)Nc1ccc(F)cc1)c1ccccc1` (stereo partly drawn) [TDH-083, (R)-2-((4-fluorophenyl)amino)-2-oxo-1-phenylethyl 6-amino-1′-(2-(2-(2-((2-(2,6-dioxopiperidin-3-yl)-1,3-dioxoisoindolin-5-yl)amino)ethoxy)ethoxy)acetyl)-1′,2′,3′,6′-tetrahydro-[3,4′-bipyridine]-5-carboxylate] it is 84 nM; for `CN(C)c1ccc(NC(=O)[C@H](OC(=O)c2nc(-c3cnn(C4CCNCC4)c3)cnc2N)c2ccccc2)cc1` [TDH-470, (R)-2-((4-(dimethylamino)phenyl)amino)-2-oxo-1-phenylethyl 3-amino-6-(1-(piperidin-4-yl)-1H-pyrazol-4-yl)pyrazine-2-carboxylate hydrochloride] it is 3.8 nM. The same measure, in the same setting: in the case of `Nc1ncc(-c2cnn(C3CCNCC3)c2)nc1C(=O)O[C@@H](C(=O)Nc1ccc(C(F)(F)F)cc1)c1ccccc1` [TDH-459, (R)-2-oxo-1-phenyl-2-((4-(trifluoromethyl)phenyl)amino)ethyl 3-amino-6-(1-(piperidin-4-yl)-1H-pyrazol-4-yl)pyrazine-2-carboxylate hydrochloride] it was 6.5 nM. For `Nc1nccnc1C(=O)O[C@@H](C(=O)Nc1ccc(F)cc1)c1ccccc1` [TDH-001, (R)-2-((4-fluorophenyl)amino)-2-oxo-1-phenylethyl 3-aminopyrazine-2-carboxylate], binding was characterised by a dissociation constant (Kd) of 94 nM.
